Assay results taken from patent publication EP4733303A1, “MUSCARINIC M4 RECEPTOR AGONIST AND USE THEREOF” (Haisco Pharmaceutical Group Co., Ltd., priority 2023, dated 2024).
Each block holds one compound with its values, some of them ahead of it.

Tests used:
[1] = Pharmacokinetic test in monkeys; assay type: in vivo; conditions: male cynomolgus monkeys
Procedure: Experimental animals: male cynomolgus monkeys, 3-5 kg, 3-6 years old, divided into an intravenous group and an intragastric group.
Experimental method: on the day of the experiment, the monkeys were randomly grouped according to their body weights. […] Table 9. Administration information
Before and after the administration, 1.0 mL of blood was taken from the limb veins and placed in an EDTAK2 centrifuge tube. Centrifugation was carried out at 5000 rpm at 4°C for 10 min, and the plasma was collected. […] Before analysis and detection, all samples were stored at -80°C, and the samples were quantitatively analysed by LC-MS/MS. Table 10. Pharmacokinetic parameters of test compound in plasma of monkeys

[2] = target: T1, M4 receptor (Homo sapiens, UniProt P08173); assay: PAM agonistic activity of compound on M4 receptor (FLIPR Calcium 6 assay in M4-CHO cells); assay type: cell-based; conditions: with acetylcholine (Ach), final concentration 3 nM
T1 construct: expressed in transfected cells; host or cells: CHO (M4-CHO cells)
T1 sequence (P08173 1-479): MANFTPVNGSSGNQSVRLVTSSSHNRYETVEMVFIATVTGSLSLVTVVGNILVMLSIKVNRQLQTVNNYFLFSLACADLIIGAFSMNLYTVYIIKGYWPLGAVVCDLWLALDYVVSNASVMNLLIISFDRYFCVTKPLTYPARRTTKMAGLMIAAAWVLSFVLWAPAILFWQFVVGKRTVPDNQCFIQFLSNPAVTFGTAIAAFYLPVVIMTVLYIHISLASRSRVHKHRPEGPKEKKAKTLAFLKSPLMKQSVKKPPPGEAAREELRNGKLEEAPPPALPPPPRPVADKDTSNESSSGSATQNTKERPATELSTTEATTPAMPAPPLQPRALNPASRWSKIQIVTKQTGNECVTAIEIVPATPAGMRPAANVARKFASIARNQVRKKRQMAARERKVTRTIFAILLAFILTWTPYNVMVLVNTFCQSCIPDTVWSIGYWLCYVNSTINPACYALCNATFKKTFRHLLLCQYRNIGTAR
Method in brief: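 CHO cells expressing M4, plated 16–20 h, loaded 120 min at 37 °C with Calcium 6 dye. Test compound added together with acetylcholine (3 nM final) on FLIPR Tetra; fluorescence read at 515–575 nm. EC50 from nonlinear regression of signal versus concentration.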

[3] = Pharmacokinetic test in rats (plasma and brain); assay type: in vivo, SD rats; conditions: for F: i.g. 10 mg/kg versus i.v. 2.5 mg/kg; for AUC(0-t) / Cmax / clearance / half-life: plasma
Description: 3.1 Experimental animals: male SD rats, about 220 g, 6-8 weeks old, divided into an intravenous group and an intragastric group.
3.2 Experimental design: on the day of the experiment, the SD rats were randomly grouped according to their body weights. […] Table 5. Administration information
(§1) The whole blood was centrifuged to separate the plasma; the brain tissue was rinsed with cold physiological saline to remove the residual blood on the surface, drained out and then homogenized. Before analysis and detection, all samples were stored at -80°C, and the samples were quantitatively analysed by LC-MS/MS. Table 6. Pharmacokinetic parameters of test compound in plasma of rats

[4] = Pharmacokinetic test in mice (plasma and brain); assay type: in vivo, C57 mice
Description: 2.1 Experimental animals: male C57 mice, 20-25 g, divided into an intravenous group and an intragastric group.
2.2 Experimental design: on the day of the experiment, the C57 mice were randomly grouped according to their body weights. […] Table 2. Administration information
as §1, with “3.” for “6.”, “compounds” for “compound”, “mice” for “plasma of rats”

[5] = cynomolgus monkey, plasma, i.v. 1 mg/kg and i.g. 5 mg/kg groups, route of the parameter not given
[6] = rat, male SD rats, i.v. 2.5 mg/kg and i.g. 10 mg/kg groups, route of the parameter not given
[7] = mouse, male C57 mice, plasma, i.v. 2.5 mg/kg and i.g. 10 mg/kg groups, route of the parameter not given
[8] = rat, in vivo, male SD rats, i.v. 2.5 mg/kg and i.g. 10 mg/kg groups, route of the parameter not given

SMILES: Cc1cc(=O)n(C(F)F)c2c1CN(C(=O)CC1CN(c3ccnc(OC4CC(F)(F)C4)c3)C1)C2 [Compound 128]
- AUC(0-t) [1, 5]: 5940 ng·h/mL
- Cmax [1, 5]: 495 ng/mL
- clearance [1, 5]: 10.1 mL/min/kg
- half-life [1, 5]: 7.19 h
- F ([1]; i.g. 5 mg/kg versus i.v. 1 mg/kg): 71.4%
- EC50 [2]: < 0.1 µM
- F ([3]; male SD rats): >98%
- Kp ([3]; rat, brain/plasma, po, rats, i.g. (10 mg/kg), read-out: Brain/plasma ratio): 0.497
- AUC(0-t) ([3]; rat, po, rats, i.g. (10 mg/kg), read-out: Plasma AUC0-t): 46100 ng·h/mL
- Cmax [3, 6]: 5140 ng/mL
- clearance [3, 6]: 6.33 mL/min/kg
- half-life [3, 6]: 4.68 h
- AUC(0-t) ([3]; rat, male SD rats, i.v. 2.5 mg/kg and i.g. 10 mg/kg groups, route of the parameter not given, read-out: AUC0-t): 34000 ng·h/mL
- Brain tissue AUC0-t ([3]; rats, i.g. (10 mg/kg)): 22917 ng·h/g
- F ([4]; male C57 mice, i.g. 10 mg/kg versus i.v. 2.5 mg/kg): >98%
- Brain tissue AUC0-t ([4]; mice, i.g. (10 mg/kg)): 5618 ng·h/g
- Kp ([4]; mouse, brain/plasma, po, mice, i.g. (10 mg/kg), read-out: Brain/plasma ratio): 0.581
- AUC(0-t) ([4]; mouse, plasma, po, mice, i.g. (10 mg/kg), read-out: Plasma AUC0-t): 9680 ng·h/mL
- Cmax [4, 7]: 6030 ng/mL
- clearance [4, 7]: 6.91 mL/min/kg
- half-life [4, 7]: 2.25 h
- AUC(0-t) ([4]; mouse, male C57 mice, plasma, i.v. 2.5 mg/kg and i.g. 10 mg/kg groups, route of the parameter not given, read-out: AUC0-t): 25700 ng·h/mL

- EC50 [2]: < 0.1 µM
- F ([3]; male SD rats): >98%
- Cmax [3, 8]: 7960 ng/mL
- clearance [3, 8]: 18.9 mL/min/kg
- half-life [3, 8]: 0.646 h
- AUC(0-t) ([3]; rat, in vivo, male SD rats, i.v. 2.5 mg/kg and i.g. 10 mg/kg groups, route of the parameter not given, read-out: AUC0-t): 12200 ng·h/mL
SMILES: Cc1cc(C)c2c(n1)CN(C(=O)CC1CN(c3ccnc(-n4ccc(C)n4)c3)C1)C2 [Compound 29]
